# Assay results taken from a melting point compilation (Tetko et al.; mined from patent text by program, amines drawn as free bases though some values may be those of a salt).
row,Compound,melting point [°C]
1,CC(C)CCCC(NC(=O)OC(C)(C)C)c1nc(-c2cccc(Br)c2)c[nH]1 (stereo not drawn),134 to 136
2,Nc1ccccc1CSc1ncc(C(F)(F)F)cc1Cl,98 to 102
3,CCCCOC(=O)c1c(-c2cnccn2)ssc1=S,127
4,Cn1ncc2c1-c1c(Oc3ccccc3)sc(C(=O)O)c1CC2,259 to 261
5,c1ccc2c(c1)Nc1ccccc1-n1ccnc1-2,215 to 217
6,C#Cc1c(-n2ccnc2)nc(C)nc1C(F)(F)F,121 to 122
7,CC(=NO)C(C)(C)COc1ccc(F)cc1,65 to 66
8,Clc1cccc(Cl)c1N=C1NCCN1OCc1ccccc1,115 to 117
9,CCN(CC)Cn1cnc2c1c(=O)n(C)c(=O)n2C,114 to 115
10,CCNC(=Nc1ccccc1N1CCOCC1)NC,118 to 119
11,O=C(O)c1cc2c(s1)CCc1ccccc1-2,205 to 208
12,Cc1cc(C=Cc2ccccc2OCC(O)C(N)C(C)C)on1 (stereo not drawn),106 to 108
13,COc1cc2nc(N3CCN(c4ccnc(N5CCOCC5)n4)CC3)nc(N)c2cc1OC,232 to 233
14,O=S(=O)(CC1CC1)c1nc(-c2ccccn2)c(-c2ccccn2)[nH]1,210 to 212
15,CN1Cc2c(C#CC(C)(C)C)ncn2-c2cccc(Cl)c2C1=O,126 to 128
16,Cc1cc(CCc2cc(C)c(O)c(C)c2Br)c(Br)c(C)c1O,191 to 194
17,O=C(NCCO)c1nc2ccccc2[nH]1,194 to 195
18,O=C(O)C(=O)c1ccc(OCCOC2CCCCCCC2)cc1,64 to 65
19,COc1ccc(C=Cc2nnc(CCl)o2)cc1,139 to 141
20,O=C1CC(c2ccccc2)Cc2[nH]ccc(=O)c21 (stereo not drawn),207 to 209
21,N#CCCN(CCC#N)CCN(CCC#N)CCC#N,63 to 65

row,Compound,melting point [°C]
1,O=C(CCCCCBr)c1cc2c3c(c1)CC(=O)N3CCC2,86 to 87
2,Cc1c(C(F)(F)F)cnn(-c2cc(OCCC3OCCCO3)c(Cl)cc2F)c1=O,112
3,COc1cc(CCl)ccc1C12CC3CC(CC(C3)C1)C2,77 to 78
4,CCCCCCc1cc2c(cc1C(=O)O)CCCCC2(C)C,74 to 75
5,Cn1c(C(F)(F)F)cc(=O)n(-c2cc(OC(=O)NCC3CCCCC3)c(Cl)cc2F)c1=O,132 to 135
6,CCNc1ncnc(NCC)c1[N+](=O)[O-],80 to 81
7,Cc1cccc(NC(=O)OC(C)(C)C)c1CNc1cccn2c(C)c(C)nc12,128 to 131
8,CCOC(=O)C1=NCC(C)(C)c2cc(OC)c3c(c21)CC(C)(C)O3,117 to 121
9,C/C=C/C=C(\C[C@H](N)C(=O)O)C(=O)O,190
10,CCOC(=O)c1cc2cc(N)ccc2[nH]1,124 to 125
11,O=[N+]([O-])c1c(Br)c(Br)cc2c1OC(F)(F)C(F)(F)O2,91 to 92
12,OCc1cc(C(F)(F)F)ccc1I,81 to 82
13,CC(CCC1C(C)CCCC1(C)C)Oc1ccc(C(=O)O)cc1 (stereo not drawn),114 to 118
14,Nc1ccc2c(c1)OCC(=S)N2,205 to 211
15,CN1C(=O)CN(CCC#N)C1=O,53
16,Fc1cccc(-c2nc3cc(Br)ccn3n2)c1,186 to 188
17,c1ccc(OCCCCN2CCNCC2)cc1,35 to 36
18,O=C(Nc1nc(C(F)(F)F)c(I)s1)c1cc(C(F)(F)F)cc(C(F)(F)F)c1,172 to 173
19,Nc1sc2c(c1C(=O)c1cccs1)CCC(Cc1ccccc1)C2 (stereo not drawn),116 to 118
20,CC(C)(O)c1cc(OCc2ccccc2)cc(C(C)(C)O)c1,146 to 147
21,CC1(C)CC(=O)C(SCc2ccc(F)cc2)=C(O)C1,112

row,Compound,melting point [°C]
1,O=C(CCCCl)c1ccc2cc(O)c(O)cc2c1,129 to 135
2,CC(C)(C)NC(=O)[C@@H]1C[C@H](Cl)CN1C(=O)[C@@H](O)[C@H](Cc1ccccc1)NC(=O)[C@H](CCS(N)(=O)=O)NC(=O)OCc1ccccc1,115 to 122
3,O=CC1=C(c2ccc3sccc3c2)N2CCN=C2S1,146
4,CCCN(CCC)C1Cc2cccc3ccc(=O)n(c23)C1 (stereo not drawn),82 to 84
5,COC(=O)C1(CCCCCCCCCCCCC2(C(=O)NC3CC3)CC2)CC1,50.6 to 53
6,O=C(CCN1C(=O)CSC1=S)Nc1ccccc1O,168 to 170
7,O=c1[nH]nc(-c2nc3ccccc3o2)[nH]1,> 300
8,Nc1ccc2nc(N3CCOCC3)nn2c1,165
9,"COC(=O)C(CCCNC(=N)N[N+](=O)[O-])NC(=O)CCCC(=O)NCc1ccccc1 (single isomer, unassigned; (-))",97 to 99
10,COC(=O)C=Cc1ccc2[nH]ccc2c1,138 to 140
11,CN(C)CCNc1nc(C2C(=O)Nc3ccc(Br)cc32)c2cn(C)nc2n1 (stereo not drawn),279 to 289
12,COc1cccc(OC(=O)NC2C(=O)N(CCC(C)C)c3cc(Cl)ccc3N(c3ccccc3)C2=O)c1 (stereo not drawn),129 to 130
13,O=Cc1cc(OCCCNC(=O)NC2CCCCC2)ccc1[N+](=O)[O-],150 to 152
14,CCCCCc1nc2cc(Cl)c(S(N)(=O)=O)cc2[nH]1,183 to 185
15,CCCc1c(OCCCCC(=O)N(C)C)ccc(C(C)=O)c1O,95 to 97
16,C=C(Nc1nc(-c2ccccc2)c(-c2nc3ccccc3c(=O)n2-c2ccccc2Cl)s1)c1ccco1,> 275
17,Cc1c(C)c2c(c(C)c1O)C(C(=O)O)C(C)(C)O2 (stereo not drawn),161 to 164
18,CNC(=O)c1ccnc(NC(=O)N2CCC3(CCc4ccc(F)cc4O3)CC2)c1,177 to 179
19,CCCCOC(=O)c1ccc2nc(N)[nH]c2c1,183 to 185
20,COc1cc(=O)c2c([nH]c1=O)CC(Cl)C(Cl)C2 (stereo not drawn),229 to 230
21,CCC(C)NC1=NS(=O)(=O)c2sc(C)cc2N1 (stereo not drawn),224 to 225

# Continued, values first:
row,melting point [°C],Compound
1,221 to 231,O=C(NC(=O)c1c(Cl)cccc1Cl)Nc1ccc(-c2ccccc2)cn1
2,160 to 161,CC(C)n1nc(-c2c(-c3ccccc3)nn3ccc(N4CCN(C(=O)N(C)C)CC4)cc23)ccc1=O
3,171 to 172,COc1ccc(-c2c(Cl)c(CCl)nc3sc4c(c23)CCN(Cc2ccccc2)C4)cc1OC
4,118 to 120,CCCCCc1c(C(C)C)nc(C(C)C)c(CO)c1-c1ccc(F)c(C(O)c2ccc(F)cc2)c1 (stereo not drawn)
5,130 to 133,Cc1cccc(S(=O)(=O)Cc2c(C(F)(F)F)n[nH]c2O)c1
6,177 to 179,NS(=O)(=O)c1nc(-c2ccccc2F)ns1
7,158,CCCO[C@@H]1[C@@H](OC)[C@H](C)O[C@@H](OC(=O)Nc2ccc(-c3ncn(-c4ccc(OC(F)(F)C(F)(F)F)cc4)n3)cc2)[C@@H]1OC
8,174,NC(=O)Cc1ccc2c(c1)CCc1ccccc1C2=O
9,130,CCCCC(C(=O)NO)S(=O)(=O)c1ccc(OC)cc1 (stereo not drawn)
10,148 to 149,COc1cccc(CC(=O)O)c1OCCCc1cn(-c2ccc(Cl)cn2)nc1C(C)C
11,81 to 82,CCOC(=O)CCc1ccc2oc(Cc3ccc4ccccc4c3)nc2c1
12,166 to 168,Oc1cccc(CCc2nc(-c3ccccc3)c(-c3ccccc3)s2)c1
13,170 to 172,NS(=O)(=O)c1ccc(-n2nc(C(F)(F)F)cc2-c2ccc(-c3cocn3)cc2)cc1
14,99 to 101,COc1ccc(C2CNC(=O)C2)cc1OS(=O)(=O)C(F)(F)F (stereo not drawn)
15,197 to 198,ON=Cc1c(-c2ccccc2F)ccc2c1OCO2
16,76,NCC1COc2cc(F)cc(-c3cccc(Cl)c3)c2N1 (stereo not drawn)
17,245 to 246,Nc1nnc(-c2ccc3occ(-c4cc(F)ccc4F)c3c2)o1
18,169 to 170,CC(=O)COc1c(-c2ccc(S(C)(=O)=O)cc2)cnn(-c2ccc(F)c(F)c2)c1=O
19,177 to 178,Cn1ncc(/C=C/C(=O)Nc2ccc(CCc3nnco3)cc2)c1-c1ccc(F)cc1
20,115 to 116,COC(=O)c1ccc(OCC(C)=O)c(C(=O)OC)c1

row,melting point [°C],Compound
1,114 to 116,CN(CCCCCCO)c1ccc(N=Nc2ccc(S(C)(=O)=O)cc2)cc1
2,154,CCOC(C(N)=O)N(c1ccc(Cl)cc1Cc1c(F)cccc1F)S(=O)(=O)c1ccc(OC)c(OC)c1 (stereo not drawn)
3,153 to 156,CCc1cc2c(ccc(=O)n2Cc2ccc([N+](=O)[O-])cc2)c(CC)n1
4,270 to 273,CCOC(=O)c1sc(-n2ccc(O)cc2=O)nc1C
5,98 to 100,Cc1c(-c2ccc(O)cc2)n(Cc2ccc(OCCN3CC4(C)CC3CC(C)(C)C4)cc2)c2ccc(O)cc12 (stereo not drawn)
6,59 to 60,COC(=O)c1ccc(CCc2nc(-c3ccccc3)oc2C)cc1
7,244 to 245,O=C(O)c1ccc(Oc2c(-c3ccc(O)cc3)c(C(F)(F)F)cc3ccccc23)cc1
8,171 to 173,CC(=O)Nc1ccc(C=Nc2cc(Cl)c(N=CN(C)C)c(Cl)c2)cc1
9,183 to 184,CCOC(=O)c1c(CS(=O)(=O)c2nccn2C)nc2cc(OC)c(OC)cc2c1-c1ccc(OC)c(OC)c1
10,148 to 149,CCNc1ccc(C2(C)C(=O)c3c(Cl)cc(Cl)cc3N(Cc3ccccc3)C2=O)cc1 (stereo not drawn)
11,160 to 161,CCOC(=O)N(C(=O)N1CC(c2ccc(Cl)cn2)C(c2ccc(F)cc2)=N1)c1ccc(OC(F)(F)F)cc1 (stereo not drawn)
12,148 to 150,COc1cccc(-c2cc3ccc(C#N)cc3o2)c1
13,67.5 to 69.5,CC(=O)OCCOc1ccc(OCCOC(C)=O)c(N)c1
14,150,COc1cccc(-c2ccc(C(=O)N(Cc3cccc(O)c3)C3CC3)s2)c1F
15,193 to 197,COc1ccc(CC2CCN(C(=O)C(=O)Nc3ccc4[nH]c(=O)oc4c3)CC2)cc1
16,213 to 215,CCn1cc(C(=O)O)c(=O)c2cc(F)c(C(=O)CBr)c(F)c21
17,108 to 109,CCCCCCCCCCCCc1ccc(S(=O)(=O)Nc2nnc(CC(=O)OCC)s2)cc1
18,> 300,Cc1cc2nc(C=Cc3ccc(C(=O)O)cc3)oc2cc1C
19,201 to 204,Fc1ccc2[nH]c3c4c(Cl)cccc4nc-3cc2c1
20,99 to 101,COC(=O)c1nc(-c2cc(N)c(Cl)cc2F)cc(N)c1Cl
